Measured values published in PubChem BioAssay (NCI).
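Exposure lasted 48 hours, with cells grown in 96-well plates and compounds tested at five concentrations. Here, GI50 denotes the concentration required for 50% inhibition of growth. TGI is the concentration that stops growth completely.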

What was measured:
Test in all cases: DTP human tumour cell line panel, 48 h
[1] = test system: SW-620 colon
[2] = test system: OVCAR-8 ovarian
[3] = test system: SR leukemia
[4] = test system: UACC-62 melanoma
[5] = test system: CCRF-CEM leukemia
[6] = test system: NCI-H23 lung
[7] = test system: NCI-H522 lung
[8] = test system: SF-268 CNS
[9] = test system: MDA-MB-435
[10] = test system: M14 melanoma
[11] = test system: HOP-92 NSCLC
[12] = test system: SK-OV-3 ovarian
[13] = test system: COLO 205 colon
[14] = test system: SK-MEL-28 melanoma
[15] = test system: KM12 colon
[16] = test system: U251 CNS
[17] = test system: NCI-H226 lung
[18] = test system: HOP-62 NSCLC
[19] = test system: PC-3 prostate
[20] = test system: HS 578T breast
[21] = test system: TK-10 renal
[22] = test system: SN12C renal
[23] = test system: NCI-H460 lung
[24] = test system: SK-MEL-5 melanoma
[25] = test system: A549 NSCLC
[26] = test system: RPMI-8226 leukemia
[27] = test system: BT-549 breast
[28] = test system: MDA-MB-231 breast
[29] = test system: 786-0 renal
[30] = test system: SF-295 CNS
[31] = test system: OVCAR-5 ovarian
[32] = test system: ACHN renal
[33] = test system: HCT-116 colon
[34] = test system: SNB-75 CNS
[35] = test system: T-47D breast
[36] = test system: K-562 leukemia
[37] = test system: UACC-257 melanoma
[38] = test system: LOX IMVI melanoma
[39] = test system: DU-145 prostate
[40] = test system: SF-539 CNS
[41] = test system: UO-31 renal
[42] = test system: SK-MEL-2 melanoma
[43] = test system: MOLT-4 leukemia
[44] = test system: IGROV1 ovarian
[45] = test system: HT29 colon
[46] = test system: MALME-3M melanoma
[47] = test system: HCT-15 colon
[48] = test system: HCC-2998 colon
[49] = test system: MCF7 breast
[50] = test system: NCI/ADR-RES ovarian
[51] = test system: A498 renal
[52] = test system: OVCAR-4 ovarian
[53] = test system: SNB-19 CNS
[54] = test system: CAKI-1 renal

With O=C(Nc1cccc(-n2cc(-c3ccncc3)c(-c3ccc(O)c(Cl)c3)n2)c1)c1ccc(Cl)c(Cl)c1 the GI50 [1] was 3.89 µM, the TGI [1] was > 100 µM and the GI50 [2] was 5.06 µM. For the same compound, the TGI [2] was > 100 µM, the GI50 [3] was 3.57 µM and the TGI [3] was > 100 µM. For the same compound, the GI50 [4] was 10.8 µM, the TGI [4] was 47.6 µM and the GI50 [5] was 4.08 µM. For the same compound, the TGI [5] was > 100 µM, the GI50 [6] was 15 µM and the TGI [6] was > 100 µM. For the same compound, the GI50 [7] was 4.13 µM, the TGI [7] was 74.4 µM and the GI50 [8] was 36.9 µM. For the same compound, the TGI [8] was > 100 µM, the GI50 [9] was 6.06 µM and the TGI [9] was 46.2 µM. The GI50 [10] was 5.26 µM, the TGI [10] was 54.6 µM and the GI50 [11] was 2.33 µM. For the same compound, the TGI [11] was 28.4 µM, the GI50 [12] was 42.3 µM and the TGI [12] was > 100 µM. For the same compound, the GI50 [13] was 62.2 µM, the TGI [13] was > 100 µM and the GI50 [14] was 3.45 µM. For the same compound, the TGI [14] was 19.4 µM, the GI50 [15] was 5.44 µM and the TGI [15] was > 100 µM. The GI50 [16] was 4.03 µM, the TGI [16] was 34.2 µM and the GI50 [17] was 8.06 µM. The TGI [17] was > 100 µM, the GI50 [18] was 20.3 µM and the TGI [18] was > 100 µM. For the same compound, the GI50 [19] was 5.16 µM, the TGI [19] was > 100 µM and the GI50 [20] was 2.82 µM. For the same compound, the TGI [20] was > 100 µM, the GI50 [21] was 43.2 µM and the TGI [21] was > 100 µM. For the same compound, the GI50 [22] was 23.1 µM, the TGI [22] was > 100 µM and the GI50 [23] was 3.91 µM. The TGI [23] was > 100 µM, the GI50 [24] was 3.9 µM and the TGI [24] was 18.7 µM. The GI50 [25] was 6.55 µM, the TGI [25] was > 100 µM and the GI50 [26] was 3.46 µM. For the same compound, the TGI [26] was > 100 µM, the GI50 [27] was 10.4 µM and the TGI [27] was > 100 µM. For the same compound, the GI50 [28] was 1.52 µM, the TGI [28] was 8.58 µM and the GI50 [29] was 5.49 µM. For the same compound, the TGI [29] was 94.3 µM, the GI50 [30] was 5.94 µM and the TGI [30] was 86.5 µM. The GI50 [31] was 39.5 µM, the TGI [31] was > 100 µM and the GI50 [32] was 4.62 µM. For the same compound, the TGI [32] was > 100 µM, the GI50 [33] was 5.95 µM and the TGI [33] was > 100 µM. The GI50 [34] was 0.977 µM, the TGI [34] was 18.4 µM and the GI50 [35] was 5.36 µM. For the same compound, the TGI [35] was > 100 µM, the GI50 [36] was 3.48 µM and the TGI [36] was > 100 µM. For the same compound, the GI50 [37] was 4.12 µM, the TGI [37] was 31.3 µM and the GI50 [38] was 7.21 µM. The TGI [38] was > 100 µM, the GI50 [39] was 20.9 µM and the TGI [39] was > 100 µM. For the same compound, the GI50 [40] was 3.47 µM, the TGI [40] was > 100 µM and the GI50 [41] was 4.5 µM. For the same compound, the TGI [41] was > 100 µM, the GI50 [42] was 11.6 µM and the TGI [42] was 38.6 µM. The GI50 [43] was 7.19 µM, the TGI [43] was > 100 µM and the GI50 [44] was 25.5 µM. For the same compound, the TGI [44] was > 100 µM, the GI50 [45] was 26 µM and the TGI [45] was > 100 µM. For the same compound, the GI50 [46] was 3.58 µM, the TGI [46] was 21 µM and the GI50 [47] was 3.2 µM. For the same compound, the TGI [47] was > 100 µM, the GI50 [48] was 40.6 µM and the TGI [48] was > 100 µM. For the same compound, the GI50 [49] was 4.08 µM, the TGI [49] was > 100 µM and the GI50 [50] was 5.26 µM. For the same compound, the TGI [50] was 65.5 µM, the GI50 [51] was 1.94 µM and the TGI [51] was 89.9 µM. The GI50 [52] was 9.9 µM, the TGI [52] was > 100 µM and the GI50 [53] was 29.7 µM. The TGI [53] was > 100 µM, the GI50 [54] was 3.38 µM and the TGI [54] was > 100 µM.
